Assay [1] deals with F. oxysporum f.sp. lycopersici. The note with it: mycelial growth; cited from earlier work.
In a further assay the test system is Alternaria mali. The note with it: mycelial growth; cited from earlier work.
A further assay relates to F. verticillioides. Conditions: cited from earlier work.
The subject of assay [2] is Pestalotia guepinii. The assay can be described thus: mycelial growth inhibition on potato dextrose agar. It is filed as cell-based. Conditions: for EC50: read-out: EC50 (effective concentration that caused 50% inhibition of mycelial growth); for MIC: read-out: MIC (minimal inhibitory concentration); for inhibition at 50 µg/mL: 264 h, 50 μg/mL, day 11, read-out: colonies inhibited.

Assay [3] concerns Fusarium avenaceum. The assay can be described thus: mycelial growth inhibition on potato dextrose agar. The note with it: in vitro; at the same concentrations as the dithiocarbamate (100 ppm). The format is cell-based.
A further assay has as its system Epicoccum nigrum. As to the kind of experiment: mycelial growth inhibition on potato dextrose agar. It is filed as cell-based. The protocol: (§1) Alternaria alternata, Epicoccum nigrum, Pestalotia guepinii, Drechslera sp., and Fusarium avenaceum were isolated from infected leaves and roots of C. acuminata. The strains were cultured and maintained on potato dextrose agar (PDA) medium.
(§2) CPT, trifolin, and hyperoside (isolated from Camptotheca as above) were tested for their ability to inhibit these fungi, as compard with two classical fungicides, Bravo (active ingredient: chlorothalonil) and Maneb (active ingredient: manganous ethylenebis [dithiocarbamate]), as references. The concentrations of the conventional fungicides were those recommended by the manufacturers (Bravo: 10,000 μg/mL; Maneb: 3,000 μg/mL).
(§3) In addition to a negative control (0) and two fungicides as positive controls for each of the five isolated pathogens, seven levels of CPT were tested with each of the fungi and three levels of trifolin and hyperoside were tested with P. guepinii, Drechslera sp. and F. avenaceum, respectively (see FIG. 8).
(§4) Trifolin and hyperoside treatments were applied at concentrations of 50, 100, and 150 μg/mL, respectively. For all cultures, final concentrations were made in molten (50° C.) potato dextrose agar (Difco), and 10 mL aliquots were poured into Petri dishes (85 mm in diameter). Within 24 hours after pouring, each of the plates was inoculated with one of the five fungi. One 5×5 mm mycelial plug was cut from the actively growing front of a 2 week old colony, then placed with the inoculum side down in the center of each treatment plate. The cultures were incubated at 24° C. For all experiments, five replicate plates were inoculated for each treatment.
(§5) Mycelial growth on each plate was observed daily and recorded on a transparent film for the first two weeks, then recorded on the 16th, 20th, 23rd, and 28th days. Colony radii were measured along four vertical radial directions. The mean of the four measurements was calculated as the growth rate on each plate. Mean and standard error were calculated from the five replicates of each treatment. For each of the fungi, values of EC50 (effective concentration that caused 50% inhibition of mycelial growth) and MIC (the minimum inhibitory concentration) of each compound were estimated.

Another assay has as its system Drechslera sp. As to the kind of experiment: mycelial growth inhibition on potato dextrose agar. The note with it: for EC50: estimated; for inhibiting fungus: at all experimental concentrations; for inhibition at 50 µg/mL: 480 h, 50 μg/mL, day 20, read-out: colonies inhibited. It is filed as cell-based. The protocol:
as §1, §2, §3, §4, §5

The subject of assay [4] is Pestalotia guepinii. As to the kind of experiment: mycelial growth inhibition on potato dextrose agar. The format is cell-based. The protocol: as §1, §2, §3, §4, §5
For assay [5], the system named is Fusarium avenaceum. The assay can be described thus: mycelial growth inhibition on potato dextrose agar. The note with it: for inhibition at 10 µg/mL: read-out: inhibition of mycelial growth, CPT 10 μg/mL; for inhibiting fungus: at all experimental concentrations; for inhibition at 50 µg/mL / inhibition at 100 µg/mL: 672 h, day 28, read-out: inhibited fungal growth; for inhibition at 50 µg/mL: 50 μg/mL; for inhibition at 100 µg/mL: 100 μg/mL; for EC50: F. avenaceum, estimated, read-out: EC50 (effective concentration that caused 50% inhibition of mycelial growth). The format is cell-based. The protocol: as §1, §2, §3, §4, §5

For a further assay, the system named is Alternaria alternata. As to the kind of experiment: mycelial growth inhibition on potato dextrose agar. It is filed as cell-based. The protocol:
as §1, §2, §3, §4, §5

Another assay relates to Botrytis cinerea. Conditions: in vitro tests and TLC bioautography; Sridhar et al. (2003); cited from earlier work.
A further assay relates to F. oxysporum f. sp. lini. Conditions: 100 ppm (100 μg/mL); cited from earlier work.
[6] abbreviates: at relatively higher concentrations.
Setting [7] is: Drechslera sp., read-out: EC50 (effective concentration that caused 50% inhibition of mycelial growth).

The structures appear in SMILES notation. Values after ≈ are worked out from the molar mass of the structure shown. Read-outs that look alike come from different tables or passages of the source. Bounds are passed on as bounds.

Turning to `C/C=C\c1cc(OC)c(OC)cc1OC` [β-Asarone], the MIC (in assay [1]; with Alternaria mali) was above 100 µg/mL throughout.

`COc1cc(C=O)ccc1O` [Vanillin]: the MIC in the assay with F. verticillioides was 600 µg/mL (≈ 3940 µM).

As for `CC[C@@]1(O)C(=O)OCc2c1cc1n(c2=O)Cc2cc3ccccc3nc2-1` [CPT, 4(S)-4-ethyl-4-hydroxy-1H-pyrano-(3′,4′:6,7) indolizino (1,2,-b) quinoline-3,14 (4H,12H)-dione], the EC50 in the assay on Pestalotia guepinii [2] is around 10 µg/mL (≈ 28.7 µM); in the assay on Epicoccum nigrum (Epicoccum nigrum, read-out: EC50 (effective concentration that caused 50% inhibition of mycelial growth), E. nigrum, estimated) it was around 10 µg/mL (≈ 28.7 µM); in the assay with Drechslera sp. (Drechslera, read-out: EC50 (effective concentration that caused 50% inhibition of mycelial growth), Drechslera sp.), around 10 µg/mL (≈ 28.7 µM); in the assay on Alternaria alternata (Alternaria alternata, read-out: EC50 (effective concentration that caused 50% inhibition of mycelial growth)), below 25 µg/mL. Besides, the MIC in the assay with Pestalotia guepinii [2] is 125 µg/mL (≈ 359 µM); in the assay on Epicoccum nigrum (Epicoccum nigrum, E. nigrum, read-out: MIC (minimal inhibitory concentration)), 75 µg/mL (≈ 215 µM); in the assay on Drechslera sp. (Drechslera, read-out: MIC (minimal inhibitory concentration)) it was 100 µg/mL (≈ 287 µM); in the assay on Fusarium avenaceum [5] (Fusarium avenaceum, read-out: MIC (minimal inhibitory concentration; complete inhibition)) it was 125 µg/mL (≈ 359 µM); with Alternaria alternata (Alternaria alternata, A. alternata, read-out: MIC (minimal inhibitory concentration)), 75 µg/mL (≈ 215 µM). The compound further came in with an inhibited growth in the assay with Fusarium avenaceum [3] of 70%. Besides, the delayed mycelial growth in the assay on Epicoccum nigrum (CPT 10 μg/mL and 25 μg/mL, 28 days vs. 10 days for control) came out at 280%. In the assay with Epicoccum nigrum (CPT 10 μg/mL and 25 μg/mL, control 10 days), the “days to cover agar surface” value was 28 days. In addition, the “colonies smaller than controls” value is 65% in the assay with Epicoccum nigrum (CPT 10 μg/mL, day 10) and 52.8% in the assay on Alternaria alternata (CPT 25 μg/mL, day 13). Also, the colony radii was found to be 20 mm in the assay with Epicoccum nigrum (CPT 25 μg/mL, day 15) and 8 mm with Epicoccum nigrum (CPT 50 μg/mL, day 20). In the assay with Epicoccum nigrum (CPT 50 μg/mL), this compound returned a day growth began of 8th day. Moreover, the “growth inhibition” value in the assay on Epicoccum nigrum (CPT 75 μg/mL and higher) was “totally inhibited growth”; in the assay on Drechslera sp. (CPT 100 μg/mL and higher), “completely inhibited fungal growth”; in the assay on Pestalotia guepinii [4] (CPT 125 μg/mL and above), “totally inhibited growth”; in the assay with Fusarium avenaceum [5] (CPT 125 and 150 μg/mL), “completely inhibited growth”. Moreover, the inhibition at 50 µg/mL with Epicoccum nigrum (Epicoccum nigrum, CPT 50 μg/mL, read-out: inhibited growth) is above 90%. Moreover, the “suppressing growth” value in the assay on Epicoccum nigrum (setting [6]) and in the assay with Alternaria alternata (setting [6]) was “effective” throughout. The “inhibition compared with Bravo” value with Drechslera sp. (CPT at all experimental levels (10-150 μg/mL) vs Bravo 10,000 μg/mL) was “greater inhibition rates than Bravo”. Moreover, the “inhibiting fungus” value in the assay on Drechslera sp. and in the assay on Fusarium avenaceum [5] was “highly effective” throughout. The same compound displayed a reduced mycelial growth with Pestalotia guepinii [4] (CPT 10 μg/mL, 11th day) of 43.5%. The “day colonies reached the petri dish margins” value in the assay on Pestalotia guepinii [4] (CPT 10 μg/mL, control 11th day) was 20 days. The inhibition at 30 µg/mL in the assay on Fusarium avenaceum [5] (Fusarium avenaceum, read-out: inhibited the rate of mycelial growth, CPT 30 μg/mL) is above 60%. Besides, the inhibition at 10 µg/mL with Fusarium avenaceum [5] (Fusarium avenaceum, first several days of the experiment) was 70 to 80%; in the assay with Fusarium avenaceum [5] (Fusarium avenaceum, later stages) it was around 40%; in the assay on Alternaria alternata (Alternaria alternata, CPT 10 μg/mL, read-out: colonies inhibited) it was 41 to 66%. Further, the “days for mycelium to completely cover the agar surface” value with Alternaria alternata (CPT 10 μg/mL, control 13 days) was 23 days. In addition, the “day colonies started to grow” value in the assay on Alternaria alternata (CPT 25 μg/mL) is reported as “second day”. This compound returned a colony expansion reduced with Alternaria alternata (CPT 25 μg/mL, 28 days vs. 13 days for control) of 215%. Besides, in the assay on Alternaria alternata (CPT 25 μg/mL, control 13 days), the “days to cover the agar surface” value is given as 28 days. In addition, in the assay on Alternaria alternata (CPT 75 μg/mL and above), the “control of fungal growth” value is recorded as “totally controlled”.

As to `COc1cc([C@H]2OC[C@H]3[C@@H]2CO[C@H]3c2ccc(O)c(OC)c2)ccc1O` (racemic) [(±) pinoresinol], the MIC in the assay on F. verticillioides is 1,000 μg/mL.

For the compound `O=c1c(O[C@@H]2O[C@H](CO)[C@H](O)[C@H](O)[C@H]2O)c(-c2ccc(O)cc2)oc2cc(O)cc(O)c12` [trifolin, kaempferol-3-O-β-D-galactopyranoside], the inhibition at 50 µg/mL in the assay with Pestalotia guepinii [2] came out at 53.4%; with Drechslera sp. (Drechslera), 76.1%; with Fusarium avenaceum [5] (Fusarium avenaceum) it was 35.8%. The EC50 was around 50 µg/mL (≈ 112 µM) in the assay on Pestalotia guepinii [2] (P. guepinii, estimated); below 50 µg/mL in the assay with Drechslera sp. (setting [7]); 50 to 100 µg/mL (≈ 112 to 223 µM) in the assay with Fusarium avenaceum [5] (Fusarium avenaceum). In addition, the MIC in the assay with Pestalotia guepinii [2] (P. guepinii) is below 125 µg/mL. Moreover, the inhibited growth in the assay with Fusarium avenaceum [3] worked out at 70%. The “growth inhibition” value in the assay with Drechslera sp. (100 μg/mL, 28-day experiment) is “totally controlled the fungus”; in the assay on Drechslera sp. (150 μg/mL), “completely inhibited growth”; in the assay on Fusarium avenaceum [5] (150 μg/mL), “totally controlled the fungus during the entire experiment”. The “inhibiting fungus” value in the assay with Drechslera sp. and in the assay on Fusarium avenaceum [5] was “highly effective” throughout. In the assay with Fusarium avenaceum [5] (Fusarium avenaceum), the inhibition at 100 µg/mL came out at 74.8%.

Take `COc1cc(C=CC=O)ccc1O` [4-hydroxy-3-methoxycinnamaldehyde]: in the assay on F. verticillioides, the MIC was 400 µg/mL (≈ 2240 µM).

With `CC(C)=CCC/C(C)=C/CO` [geraniol], in the assay with Botrytis cinerea, the “minimum concentration (MIC)” value is 160 µg/mL.

Turning to `CCN(CC)C(=S)[S-].[Na+]` [N,N-diethyldithiocarbamic acid sodium salt], in the assay with F. oxysporum f. sp. lini, the inhibit growth was 7-30%.

Turning to `O=c1c(O[C@@H]2O[C@H](CO)[C@H](O)[C@H](O)[C@H]2O)c(-c2ccc(O)c(O)c2)oc2cc(O)cc(O)c12` [hyperoside, quercetin-3-O-β-D-galactopyranoside], the inhibition at 50 µg/mL with Pestalotia guepinii [2] was found to be 53.8%; with Drechslera sp. (Drechslera), 74.3%; in the assay on Fusarium avenaceum [5] (Fusarium avenaceum) it was 31.6%. For the same compound, the EC50 was around 50 µg/mL (≈ 108 µM) in the assay with Pestalotia guepinii [2] (P. guepinii, estimated); below 50 µg/mL with Drechslera sp. (setting [7]); 50 to 100 µg/mL (≈ 108 to 215 µM) in the assay on Fusarium avenaceum [5] (Fusarium avenaceum). Further, the MIC in the assay with Pestalotia guepinii [2] (P. guepinii) is below 125 µg/mL. The inhibited growth in the assay with Fusarium avenaceum [3] is recorded as 70%. Further, the “growth inhibition” value is recorded as “little growth by day 28” with Drechslera sp. (100 μg/mL, 28-day experiment); “completely inhibited growth” in the assay with Drechslera sp. (150 μg/mL); “completely inhibited fungal growth during the first four weeks” in the assay on Fusarium avenaceum [5] (150 μg/mL). Also, the “inhibiting fungus” value in the assay with Drechslera sp. and with Fusarium avenaceum [5] was “highly effective” throughout. The inhibition at 100 µg/mL in the assay on Fusarium avenaceum [5] (Fusarium avenaceum) was 72.6%.
